Measurements taken from patent publication US7732493B2, “2-substituted D-homo-estra-1,3,5(10)-trienes as inhibitors of 17β-hydroxy steroid dehydrogenase type 1” (Bayer Schering Pharma Aktiengesellschaft, priority 2004, dated 2010).

target: T1, human 17β-hydroxy steroid dehydrogenase type 1 (17β-HSD1) (Homo sapiens, UniProt P14061); experiment: Inhibition of the activity of human 17β-hydroxy steroid dehydrogenase type 1 (3H-labeled substrate conversion, HPLC); type: biochemical; details: human enzyme over-expressed in E. coli, bacterial suspension, 37° C., double determination; read-out: 17βHSD1 IC50
T1 construct: made in house; host or cells: E. coli
T1 sequence (P14061 1-328): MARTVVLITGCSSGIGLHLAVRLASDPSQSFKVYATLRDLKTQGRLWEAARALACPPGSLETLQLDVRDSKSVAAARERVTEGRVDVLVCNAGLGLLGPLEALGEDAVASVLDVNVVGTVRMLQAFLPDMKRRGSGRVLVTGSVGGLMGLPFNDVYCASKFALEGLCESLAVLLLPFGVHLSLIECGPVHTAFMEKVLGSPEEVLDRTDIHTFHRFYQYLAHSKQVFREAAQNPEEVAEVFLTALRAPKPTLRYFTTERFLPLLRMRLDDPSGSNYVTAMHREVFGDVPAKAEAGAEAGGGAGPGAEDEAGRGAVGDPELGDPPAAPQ
Excerpt: The test process is well described in the literature [Adamski, J., Sierralta, W. D., Jungblut, P. W., Acta Endocrinol (Copenh.) 121(2) (1989), 161-7] and is depicted below.
Human 17β-hydroxy steroid dehydrogenases (17β-HSDs) are over-expressed in E. coli bacteria as His-Tag proteins or as GST-fusion proteins. The suspensions of the bacterial pellets in isotonic common salt solution are used for the determination of enzyme activities of the 17β-HSDs or for the study of their influence by potential inhibitors (estrogen derivatives).
The measurements are made in double determination and, if necessary, at various concentrations of potential inhibitors (e.g., in determining the IC50 values). In addition to the target enzyme 17β-HSD1, other steroid-metabolizing enzymes are included in the test to study cross reactivities of estrogen derivatives.
The incubation of the samples is carried out at 37° C. in a water bath while being shaken, such that in the control (without substances to be tested), a conversion of about 30% is achieved.
The separation of radiolabeled substrate and product is then carried out, after extraction with 1 ml of reversed phase-(RP-18)-cartridges, by means of HPLC on an RP18 column with acetonitrile:water 1:1 (v/v) as a mobile phase. The radioactivity is detected with the aid of a flow-scintillation counter.
The evaluation of the substrate conversion with and without substances to be tested is performed by the integration of the substrate and product peaks. The conversion of the control is normalized to 100% conversion.

| IC50 [nM] | Molecule |
| --- | --- |
| 52 | 2-Bromo-17a-oxo-17a-homoestra-1,3,5(10)-trien-3-ol [Example 3] |
| 85 | COc1cc2c(cc1O)CC[C@@H]1[C@@H]2CC[C@]2(C)C(=O)CCC[C@@H]12 [Example 1, 2-Methoxy-17a-oxo-17a-homoestra-1,3,5(10)-trien-3-ol] |
| 52 | 2-Iodo-17a-oxo-17a-homoestra-1,3,5(10)-trien-3-ol [Example 4] |
| 24 | C=CCc1cc2c(cc1O)CC[C@@H]1[C@@H]2CC[C@]2(C)C(=O)CCC[C@@H]12 [Example 7, 2-Allyl-17a-oxo-17a-homoestra-1,3,5(10)-trien-3-ol] |
